Among the data in ChEMBL document CHEMBL4476870, “Arf6 inhibitors and methods of synthesis and use thereof” (2017) are inhibition and Activity values, retold here.

Calls of active or inactive are those of the source. No cut-off for these calls is given here.

Assay [1] has as its system Mus musculus. The assay is described as follows: Reduction in oxygen-induced retinopathy in mouse placed in 75% oxygen-environment from day 5 to 12 assessed as reduction in neovascularization at 5 ug dosed via intraocular injection on day 12 and 15 and measured on day 17. In kind it is functional, organism-based.
Assay [2] concerns Mus musculus. The assay is described as follows: Anti-inflammatory activity in mouse model of collagen-induced arthritis assessed as reduction in arthritic index at 10 to 60 mg/kg, BID for 14 days and measured up to 15 days post dose. It counts as functional, organism-based.
For assay [3], the system named is Mus musculus. The assay is described as follows: Inhibition of VEGF-induced retinal permeability in mouse at 500 ng dosed as single intraocular injection followed by Evan blue dye injection 6 hrs post drug dose and measured after 2 hrs. In kind it is functional, organism-based.
Assay [4] has as its system Mus musculus. The assay is described as follows: Reduction in LPS-induced acute lung injury in mouse assessed as reduction in number of cells in BALF at 5 mg/kg dosed 2 hrs post LPS challenge. In kind it is functional, organism-based.
Assay [5] has as its system Mus musculus. The assay is described as follows: Reduction in LPS-induced acute lung injury in mouse assessed as reduction in protein concentration at 5 mg/kg dosed 2 hrs post LPS challenge. It counts as functional, organism-based.
The test system of assay [6] is Mus musculus. The assay is described as follows: Inhibition of choroidal neovascularization in mouse with laser-induced Bruch's membrane disruption at 5 ug dosed on day 0 and 7 and measured on day 14. It counts as functional, organism-based.
In assay [7] the test system is Mus musculus. The assay is described as follows: Inhibition of VEGF-induced retinal permeability in mouse at 5 ug dosed as single intraocular injection followed by Evan blue dye injection 6 hrs post drug dose and measured after 2 hrs. It counts as functional, organism-based.
For assay [8], the species on record is Homo sapiens. The assay is described as follows: Antiinvasive activity against human LOX cells assessed as inhibition of 5% FBS-induced cell invasion at 30 uM by Matrigel based cell invasion assay. It counts as functional.
For the next assay, the system named is Influenza A virus. The assay is described as follows: Antiviral activity against Influenza A virus (H1N1) infected in mouse assessed as reduction in virus-infection induced mortality by measuring mouse survival at 20 mg/kg, ip qd for 5 days dosed 4 hrs before virus infection. It counts as functional, organism-based.
Another assay concerns Rattus norvegicus. The assay is described as follows: Inhibition of VEGF-induced retinal permeability in rat assessed as reduction in vascular leak at 60 mg/kg, ip dosed 1 hr before VEGF injection on day1 followed by Evan blue dye injection on day2 and measured on day 3. In kind it is functional, organism-based.
Assay [9] deals with Mus musculus. The assay is described as follows: Inhibition of VEGF-induced retinal permeability in mouse at 50 ng dosed as single intraocular injection followed by Evan blue dye injection 6 hrs post drug dose and measured after 2 hrs. It counts as functional, organism-based.
Another assay deals with LN-229. The assay is described as follows: Antiproliferative activity against human LN229 cells assessed as inhibition of cell proliferation at >1 uM by WST8 dye based colorimetric assay. It counts as functional. A general note: Formazan colour is commonly taken as a measure of viable cells.
The species entered for assay [10] is Homo sapiens. The assay is described as follows: Antiproliferative activity against human LOX cells assessed as inhibition of cell proliferation at >1 uM by WST8 dye based colorimetric assay. It counts as functional.
In assay [11] the target is PH and SEC7 domain-containing protein 1 (Mus musculus) (UniProt Q5DTT2). The assay is described as follows: Inhibition of Arf6 activation in mouse NIH/3T3 cells assessed as effect on GTP-bound Arf6 incubated for 4 hrs immobilized GST-tagged Gga3 by based pull down assay. It counts as cell-based.
A short description of assay [12]: Antiinvasive activity against human LOX cells assessed as inhibition of 5% FBS-induced cell invasion at 1 uM by Matrigel based cell invasion assay. In kind it is functional.
Assay [13] has as its system Mus musculus. The assay is described as follows: Inhibition of choroidal neovascularization in mouse with laser-induced Bruch's membrane disruption dosed on day 0 and 7 and measured on day 14. In kind it is functional, organism-based.
The subject of assay [14] is Mus musculus. The assay is described as follows: Reduction in LPS-induced acute lung injury in mouse assessed as reduction in number of cells in BALF at 60 mg/kg dosed 3 hrs post LPS challenge. It counts as functional, organism-based.
Assay [15] relates to Mus musculus. The assay is described as follows: Reduction in LPS-induced acute lung injury in mouse assessed as reduction in number of cells in BALF at 60 mg/kg dosed 4 hrs post LPS challenge. In kind it is functional, organism-based.
Assay [16] has as its system Mus musculus. The assay is described as follows: Reduction in LPS-induced acute lung injury in mouse assessed as reduction in protein concentration at 60 mg/kg dosed 3 hrs post LPS challenge. In kind it is functional, organism-based.
For assay [17], the system named is Mus musculus. The assay is described as follows: Reduction in LPS-induced acute lung injury in mouse assessed as reduction in protein concentration at 60 mg/kg dosed 4 hrs post LPS challenge. In kind it is functional, organism-based.

Chain of PH and SEC7 domain-containing protein 1 (Mus musculus) (Q5DTT2 whole entry, the tested form may be a part): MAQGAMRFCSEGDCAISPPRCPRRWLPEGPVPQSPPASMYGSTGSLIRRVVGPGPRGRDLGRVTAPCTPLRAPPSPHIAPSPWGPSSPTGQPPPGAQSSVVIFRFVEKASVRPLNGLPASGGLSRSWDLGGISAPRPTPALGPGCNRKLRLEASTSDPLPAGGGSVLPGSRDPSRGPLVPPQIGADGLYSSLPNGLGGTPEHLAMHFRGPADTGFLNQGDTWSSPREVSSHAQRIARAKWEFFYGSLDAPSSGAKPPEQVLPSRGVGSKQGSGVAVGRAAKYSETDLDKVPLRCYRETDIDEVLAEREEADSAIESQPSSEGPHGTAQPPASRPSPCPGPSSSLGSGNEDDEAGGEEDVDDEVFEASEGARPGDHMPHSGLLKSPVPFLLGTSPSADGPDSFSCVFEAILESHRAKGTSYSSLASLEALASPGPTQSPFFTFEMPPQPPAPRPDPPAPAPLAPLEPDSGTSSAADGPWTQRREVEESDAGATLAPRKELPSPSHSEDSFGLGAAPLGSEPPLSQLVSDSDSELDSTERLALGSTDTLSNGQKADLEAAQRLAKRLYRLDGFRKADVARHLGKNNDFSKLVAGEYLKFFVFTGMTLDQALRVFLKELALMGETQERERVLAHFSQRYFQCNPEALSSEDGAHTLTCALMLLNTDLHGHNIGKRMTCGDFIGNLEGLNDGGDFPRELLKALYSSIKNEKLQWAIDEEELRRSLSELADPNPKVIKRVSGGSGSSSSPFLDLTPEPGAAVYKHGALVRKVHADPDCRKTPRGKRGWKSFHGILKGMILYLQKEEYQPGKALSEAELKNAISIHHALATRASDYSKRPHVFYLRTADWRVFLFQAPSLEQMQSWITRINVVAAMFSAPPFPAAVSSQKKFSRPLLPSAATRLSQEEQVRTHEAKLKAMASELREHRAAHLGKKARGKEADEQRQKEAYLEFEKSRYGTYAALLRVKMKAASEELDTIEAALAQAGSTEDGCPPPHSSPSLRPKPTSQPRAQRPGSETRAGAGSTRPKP

In the case of `O=c1cc(-c2cccc(Oc3ccccc3)c2)[nH]c2c(-c3ccc(Cl)c(Cl)c3)c(C(F)(F)F)nn12`, the inhibition entry with Mus musculus [1] was “Active”. In addition, the Activity entry with Mus musculus [2] was “Dose-dependent effect”.

Consider `COc1ccc(-c2c(Cc3ccccc3)nn3c(=O)cc(C)[nH]c23)cc1`, for which the inhibition result with Mus musculus [3] is “Active”.

Regarding `C[C@@H]1C[C@H]2[C@@H]3CCC4=CC(=O)C=C[C@]4(C)[C@@]3(F)[C@@H](O)C[C@]2(C)[C@@]1(O)C(=O)CO`, the inhibition entry in the assay on Mus musculus [4] and in the assay on Mus musculus [5] was “Active” in each case.

Turning to `CN(C)c1ccc(/C=C2/C(=O)Nc3ccccc32)cc1`, the inhibition entry in the assay on Mus musculus [6] and in the assay with Mus musculus [1] was “Active” throughout. Also, the inhibition result in the assay with Mus musculus [7] is “inactive”.

Take `COc1nc(-c2ccc3c(c2)OCO3)n(-c2ccc(NC(=O)CSc3ccccc3)cc2)n1`: the inhibition entry in the assay listed under Homo sapiens [8] was “Active”.

For `O=c1cc(Cc2ccccc2)[nH]c2c(-c3ccc(Cl)cc3)c(C(F)(F)F)nn12`, in the assay on Mus musculus [3], the inhibition entry was “Active”. In addition, the result in the assay on Influenza A virus was Active.

Regarding `O=c1cc(-c2ccc([N+](=O)[O-])cc2)[nH]c2c(-c3ccc(Cl)cc3)c(Cc3ccccc3)nn12`, the inhibition entry (in the assay with Rattus norvegicus; with Mus musculus [9]; with Mus musculus [3]; in the assay with LN-229; in the assay filed under Homo sapiens [10]; in assay [11]) was “Active” in each case. Besides, the inhibition result with Mus musculus [1], in the assay on Mus musculus [14], with Mus musculus [15], with Mus musculus [16] and in the assay with Mus musculus [17] was “Active” in each case. The inhibition at 1 µM in [12] was 100%. Moreover, in the assay with Mus musculus [13], the inhibition result was “Dose-dependent effect”.

Usually inhibition stands for the relative decrease from the control value, in per cent.
